The target in the assay is T1, SjM2DH (mannitol-2-dehydrogenase) (Saccharina japonica, UniProt R9UHL6).
T1 construct: assayed in cell-free extract
Briefly: NADH depletion at OD340, crude E. coli extract with recombinant enzyme. As to conditions: NADH 1 mM, fructose 100 mM, 100 mM Tris-HCl pH 7.5, 35 °C. It is filed as biochemical.

T1 sequence (R9UHL6 entry or part of it): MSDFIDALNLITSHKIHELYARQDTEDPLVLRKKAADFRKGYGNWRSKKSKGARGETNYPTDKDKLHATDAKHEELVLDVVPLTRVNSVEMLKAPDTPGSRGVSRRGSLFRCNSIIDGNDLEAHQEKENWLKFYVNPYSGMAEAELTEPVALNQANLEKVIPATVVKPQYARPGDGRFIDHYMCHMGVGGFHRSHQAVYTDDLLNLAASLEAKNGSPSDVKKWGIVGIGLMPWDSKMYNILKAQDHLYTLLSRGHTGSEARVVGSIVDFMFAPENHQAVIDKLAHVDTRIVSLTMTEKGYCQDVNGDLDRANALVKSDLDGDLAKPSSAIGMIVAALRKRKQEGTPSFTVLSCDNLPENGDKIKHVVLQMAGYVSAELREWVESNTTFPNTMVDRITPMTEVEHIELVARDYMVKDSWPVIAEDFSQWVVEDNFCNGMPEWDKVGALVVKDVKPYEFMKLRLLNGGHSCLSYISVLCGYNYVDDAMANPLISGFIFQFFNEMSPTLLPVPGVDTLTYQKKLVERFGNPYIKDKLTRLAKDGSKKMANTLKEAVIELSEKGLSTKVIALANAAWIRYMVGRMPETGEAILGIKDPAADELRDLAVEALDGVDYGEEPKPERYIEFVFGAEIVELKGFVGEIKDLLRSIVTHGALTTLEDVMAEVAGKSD

In the case of `OCC1(O)OC[C@@H](O)[C@@H](O)[C@@H]1O` (stereo partly drawn) [D-fructose], the “NADH depletion at OD340, crude E. coli extract with recombinant enzyme” value is on record as “When D-fructose was applied as the substrate, a depletion of NADH was detected”.
For `NC(=O)C1=CN([C@@H]2O[C@H](COP(=O)(O)OP(=O)(O)OC[C@H]3O[C@@H](n4cnc5c(N)ncnc54)[C@H](O)[C@@H]3O)[C@@H](O)[C@H]2O)C=CC1` [NADH], the “NADH depletion at OD340, crude E. coli extract with recombinant enzyme” value is “reduction of fructose by recombinant SjM2DH exclusively uses NADH as cofactor”.

Values taken from PMC4022671, “Characterization of Mannitol-2-Dehydrogenase in Saccharina japonica: Evidence for a New Polyol-Specific Long-Chain Dehydrogenases/Reductase” (PLoS ONE, 2014).
